# Data as given in patent US8486863B2, “Activators of lateral root formation” (VIB VZW, priority 2006, dated 2013).
# Key:
# [1] = test system: Wild-type Arabidopsis thaliana; experiment: Dose-response analysis of lateral root density and root length; assay type: in vivo; details: for potency as activator of LR development (LR density): dose-response, FIG. 3; for compound concentration that increased root density five times compared to controls: 10 days after germination; for Root length: at the concentration that increased root density five times (20 μM A11, 1.5 μM NAA)
# Experimental: FIG. 3: Dose-response analysis of class 1 (upper panel) and class 2 (lower panel) activators. Wild-type Arabidopsis thaliana seeds were germinated under standard conditions on agar plates. After 3 days of germination, seedlings were transferred to agar plates containing compound at different concentrations. Lateral root density was measured 10 days after germination. Bars represent standard errors.
# FIG. 4: Dose-response analysis of A2, A11, A12, A14 and NAA. Wild-type Arabidopsis thaliana seeds were germinated under standard conditions on agar plates. After 3 days of germination, seedlings were transferred to agar plates containing compound at different concentrations and 1% DMSO. Plants transferred to agar plates containing 1% DMSO and no compound were used as controls. Lateral root density (left panels) and root length (right panels) were measured 10 days after germination. Bars represent standard errors.
# For further phenotypic analysis, all plants were grown on vertically oriented square plates (Greiner Labortechnik, Austria) with solid medium derived from standard MS medium under the same conditions. 3 DAG plants were transferred to medium supplemented with compounds and were left to grow for another 7 days. After this, root length and number of LRs were counted using ImageJ 1.34 freeware.
# As a subsequent step, the phenotypic effect of the 16 selected activators was determined in a dose-response analysis in which LR density (number of LRs per cm) was quantified (FIG. 3). Based upon potency and structure, two different classes of activators could be identified.
# [2] = test system: genes involved in auxin biosynthesis, auxin transport, auxin signaling and cell cycle; experiment: Q-PCR transcript profiling of roots after compound treatment; assay type: in vivo, Arabidopsis thaliana; details: 30 μM; 6 hrs or 24 hrs treatment
# Experimental: FIG. 5: Transcript profiling of roots of wild-type Arabidopsis thaliana plants after 6 hrs or 24 hrs treatment with A2 (upper panel), A14 (middle panel) or A11 (lower panel) at a concentration of 30 μM.
# RNA was extracted with the RNeasy kit. Poly(dT) cDNA was prepared from […] of total RNA with Superscript III reverse transcriptase (Invitrogen) and quantified on an LightCycler 480 apparatus (Roche) with the SYBR Green I Master kit (Roche) according to the manufacturers instructions. Target quantifications were performed with specific primer pairs designed with the Beacon Designer 4.0 (Premier Biosoft International). All PCRs were performed in triplicate. […] The primers used to quantify gene expression levels were: […]
# Using Q-PCR, the expression of selected genes involved in auxin biosynthesis, auxin transport, auxin signaling and cell cycle was analyzed in response to compound treatment (FIG. 5).
# [3] = test system: auxin signaling mutants; experiment: Effect of activators on lateral root density of auxin signaling mutants (Table 2); assay type: in vivo, Arabidopsis thaliana
# Description: (§1) Afb1, Afb2, Afb3 and the triple mutant Tirlafb2afb3 were described by Dhamasiri et al. (2005). Tir1 was described by Ruegger et al., (1998); 1aa28 by Rogg et al., (2001); Tir7-1 by Ruegger et al., (1997); the Cyp79b2b3 double mutant by Ljung et al. (2005); the arf7arf19 double mutant by Fukaki et al., (2005); Aux1 by Bennett et al., (1996); Xbat32 by Nodzon et al., (2004), Axr1-12 by Timpte et al., (1995), Slr1 by Fukaki et al., 2002 and Axr3-1 by Collet et al., (2000) and the mutants were obtained from the publishing authors.
# (§2) For phenotypic analysis, all mutants were grown on vertically oriented square plates (Greiner Labortechnik, Austria) with solid medium derived from standard MS medium. The plates were put in a growth chamber under continuous light (110 μE.m2.s1 photosynthetically active radiation, supplied by cool-white fluorescent tungsten tubes; Osram) at 22° C. Three days after germination, the mutant plants were transferred to medium supplemented with compounds and were left to grow for another 7 days. After this, root length and number of lateral roots were counted using ImageJ 1.34 freeware.
# [4] = test system: auxin signaling mutants; experiment: Effect of A12 and NAA on lateral root density and root length of auxin signaling mutants (Table 1); assay type: in vivo, Arabidopsis thaliana; parameters: Root length: unit not given here; details: 3 uM
# Description: as §1, §2
# DMSO is used as negative control.
# [5] = tir TM (Tir1afb2afb3 triple mutant)
compound,measurement,setting,value
"CCOC(=O)c1c(NC(=O)COc2ccc(Cl)cc2C)sc2c1CC(C)(C)OC2 [A2, ethyl 2-{[(4-chloro-2-methylphenoxy)acetyl]amino}-5,5-dimethyl-4,7-dihydro-5H-thieno[2,3-c]pyran-3-carboxylate]",potency as activator of LR development (LR density),[1],most potent activators of class 2
same,stage of LR initiation at which the effect on gene expression is exerted,[2],early stages of LR initiation (6 h)
same,lateral root density,"[3]; Afb1-1, 30 uM",13.86 LR/cm
same,lateral root density,"[3]; Afb2-1, 30 uM",10.07 LR/cm
same,lateral root density,"[3]; Afb3-1, 30 uM",10.03 LR/cm
same,lateral root density,"[3]; Arf7Arf19, 30 uM",0.00 LR/cm
same,lateral root density,"[3]; Arf16, 30 uM",9.56 LR/cm
same,lateral root density,"[3]; Arf17, 30 uM",8.67 LR/cm
same,lateral root density,"[3]; Axrt-12, 30 uM",13.97 LR/cm
same,lateral root density,"[3]; Cyp79, 30 uM",13.69 LR/cm
same,lateral root density,"[3]; Iaa28-1, 30 uM",4.32 LR/cm
same,lateral root density,"[3]; Tir1-1, 30 uM",11.98 LR/cm
same,lateral root density,"[3]; Tir7-1, 30 uM",28.57 LR/cm
same,lateral root density,"[3]; TirTM, 30 uM",0.00 LR/cm
same,lateral root density,"[3]; Xbat32, 30 uM",9.67 LR/cm
"CN1C(=O)C(=Cc2ccc(-c3cccc(C(F)(F)F)c3)o2)SC1=S [A11, 3-methyl-2-thioxo-5-({5-[3-(trifluoromethyl)phenyl]-2-furyl}methylene)-1,3-thiazolidin-4-one]",compound concentration that increased root density five times compared to controls,[1]; FIG. 4,20 µM
same,Root length,[1],0.7 times the root length of controls
same,potency as activator of LR development (LR density),[1],most potent activators of class 2
same,stage of LR initiation at which the effect on gene expression is exerted,[2],late stages of LR initiation (24 h)
same,lateral root density,"[3]; Afb1-1, 30 uM",20.74 LR/cm
same,lateral root density,"[3]; Afb2-1, 30 uM",14.04 LR/cm
same,lateral root density,"[3]; Afb3-1, 30 uM",12.99 LR/cm
same,lateral root density,"[3]; Arf7Arf19, 30 uM",0.04 LR/cm
same,lateral root density,"[3]; Arf16, 30 uM",8.76 LR/cm
same,lateral root density,"[3]; Arf17, 30 uM",11.04 LR/cm
same,lateral root density,"[3]; Axrt-12, 30 uM",12.26 LR/cm
same,lateral root density,"[3]; Cyp79, 30 uM",13.74 LR/cm
same,lateral root density,"[3]; Iaa28-1, 30 uM",10.36 LR/cm
same,lateral root density,"[3]; Tir1-1, 30 uM",8.95 LR/cm
same,lateral root density,"[3]; Tir7-1, 30 uM",43.59 LR/cm
same,lateral root density,"[3]; TirTM, 30 uM",0.00 LR/cm
same,lateral root density,"[3]; Xbat32, 30 uM",7.76 LR/cm
"O=C(O)Cc1cccc2ccccc12 [NAA, 1-naphthylacetic acid, reference compound]",Root length,[4]; CDKB DN,0.42
same,LR density,[4]; Col-0,52.98
same,Root length,[4]; Col-0,1.08
same,LR density,[4]; Ws,45.59
same,Root length,[4]; Ws,0.87
same,LR density,[4]; Xbat32,36.83
same,Root length,[4]; Xbat32,1.33
same,LR density,[4]; afb1-1,51.36
same,Root length,[4]; afb1-1,0.93
same,LR density,[4]; afb2-1,51.08
same,Root length,[4]; afb2-1,0.87
same,LR density,[4]; afb3-1,46.76
same,Root length,[4]; afb3-1,0.94
same,Root length,[4]; arf7arf19 DM (double mutant),0.87
same,Root length,[4]; aux1,0.93
same,LR density,[4]; axr1-12,40.22
same,Root length,[4]; axr1-12,1.12
same,LR density,[4]; axr5-1,27.56
same,Root length,[4]; axr5-1,1.27
same,LR density,[4]; cyp79b2-3 DM (double mutant),37.27
same,Root length,[4]; cyp79b2-3 DM (double mutant),1.43
same,LR density,[4]; iaa28-1,48.10
same,Root length,[4]; iaa28-1,0.86
same,LR density,[4]; lax3,63.09
same,Root length,[4]; lax3,1.02
same,LR density,[4]; msg2-1,37.22
same,Root length,[4]; msg2-1,1.13
same,LR density,[4]; slr-1,0.00
same,Root length,[4]; slr-1,0.84
same,LR density,[4]; tir1-1,57.73
same,Root length,[4]; tir1-1,0.99
same,LR density,[4]; tir7-1,41.72
same,Root length,[4]; tir7-1,0.87
same,LR density,[4]; [5],47.00
same,Root length,[4]; [5],0.80
same,LR density response to increasing compound concentration,[1]; FIG. 4,threshold-like mechanism
same,compound concentration that increased root density five times compared to controls,[1]; FIG. 4,1.5 µM
same,Root length,[1],0.2 times the root length of controls
same,lateral root density,"[3]; Afb1-1, 0.1 uM",13.49 LR/cm
same,lateral root density,"[3]; Afb1-1, 0.3 uM",8.76 LR/cm
same,lateral root density,"[3]; Afb1-1, 1 uM",21.43 LR/cm
same,lateral root density,"[3]; Afb1-1, 3 uM",47.81 LR/cm
same,lateral root density,"[3]; Afb2-1, 0.1 uM",14.57 LR/cm
same,lateral root density,"[3]; Afb2-1, 0.3 uM",8.98 LR/cm
same,lateral root density,"[3]; Afb2-1, 1 uM",28.72 LR/cm
same,lateral root density,"[3]; Afb2-1, 3 uM",59.72 LR/cm
same,lateral root density,"[3]; Afb3-1, 0.1 uM",15.27 LR/cm
same,lateral root density,"[3]; Afb3-1, 0.3 uM",8.93 LR/cm
same,lateral root density,"[3]; Afb3-1, 1 uM",27.72 LR/cm
same,lateral root density,"[3]; Afb3-1, 3 uM",55.01 LR/cm
same,lateral root density,"[3]; Arf7Arf19, 0.1 uM",0.00 LR/cm
same,lateral root density,"[3]; Arf7Arf19, 0.3 uM",0.00 LR/cm
same,lateral root density,"[3]; Arf7Arf19, 1 uM",0.17 LR/cm
same,lateral root density,"[3]; Arf7Arf19, 3 uM",13.18 LR/cm
same,lateral root density,"[3]; Arf16, 0.1 uM",8.05 LR/cm
same,lateral root density,"[3]; Arf16, 0.3 uM",6.63 LR/cm
same,lateral root density,"[3]; Arf16, 1 uM",10.83 LR/cm
same,lateral root density,"[3]; Arf16, 3 uM",17.17 LR/cm
same,lateral root density,"[3]; Arf17, 0.1 uM",6.57 LR/cm
same,lateral root density,"[3]; Arf17, 0.3 uM",10.34 LR/cm
same,lateral root density,"[3]; Arf17, 1 uM",0.47 LR/cm
same,lateral root density,"[3]; Arf17, 3 uM",24.68 LR/cm
same,lateral root density,"[3]; Axrt-12, 0.1 uM",8.04 LR/cm
same,lateral root density,"[3]; Axrt-12, 0.3 uM",9.25 LR/cm
same,lateral root density,"[3]; Axrt-12, 1 uM",9.03 LR/cm
same,lateral root density,"[3]; Axrt-12, 3 uM",27.55 LR/cm
same,lateral root density,"[3]; Cyp79, 0.1 uM",15.83 LR/cm
same,lateral root density,"[3]; Cyp79, 0.3 uM",6.85 LR/cm
same,lateral root density,"[3]; Cyp79, 1 uM",22.20 LR/cm
same,lateral root density,"[3]; Cyp79, 3 uM",50.78 LR/cm
same,lateral root density,"[3]; Iaa28-1, 0.1 uM",3.57 LR/cm
same,lateral root density,"[3]; Iaa28-1, 0.3 uM",7.46 LR/cm
same,lateral root density,"[3]; Iaa28-1, 1 uM",11.92 LR/cm
same,lateral root density,"[3]; Iaa28-1, 3 uM",40.09 LR/cm
same,lateral root density,"[3]; Tir1-1, 0.1 uM",5.14 LR/cm
same,lateral root density,"[3]; Tir1-1, 0.3 uM",11.34 LR/cm
same,lateral root density,"[3]; Tir1-1, 1 uM",6.74 LR/cm
same,lateral root density,"[3]; Tir1-1, 3 uM",18.30 LR/cm
same,lateral root density,"[3]; Tir7-1, 0.1 uM",15.76 LR/cm
same,lateral root density,"[3]; Tir7-1, 0.3 uM",5.78 LR/cm
same,lateral root density,"[3]; Tir7-1, 1 uM",14.79 LR/cm
same,lateral root density,"[3]; Tir7-1, 3 uM",46.33 LR/cm
same,lateral root density,"[3]; TirTM, 0.1 uM",8.04 LR/cm
same,lateral root density,"[3]; TirTM, 0.3 uM",18.89 LR/cm
same,lateral root density,"[3]; TirTM, 1 uM",15.81 LR/cm
same,lateral root density,"[3]; TirTM, 3 uM",45.09 LR/cm
same,lateral root density,"[3]; Xbat32, 0.1 uM",4.27 LR/cm
same,lateral root density,"[3]; Xbat32, 0.3 uM",9.26 LR/cm
same,lateral root density,"[3]; Xbat32, 1 uM",12.70 LR/cm
same,lateral root density,"[3]; Xbat32, 3 uM",33.67 LR/cm
